Measurements as given in patent US5596002A, “Method of treating chloroquine-resistant malaria with aminoquinoline derivatives” (Hoffmann-La Roche Inc., priority 1993, dated 1997).
≈ marks a conversion by molar mass, not a printed value. Where two headings read alike, the source gives them in different places.

Legend:
[1] = tested on: Plasmodium falciparum, chloroquine-resistant strain K1; assay: activity against P. falciparum in vitro, strain K1; type: cell-based; conditions: chloroquine-resistant strain K1, 48 h-72 h; for IC50: Plasmodium falciparum, read-out: IC50 (50% growth inhibition)
Description: (§1) Test method for the determination of the activity against P. falciparum in vitro
(§2) The preparations of the present invention were tested on intraerythrocytary stages of P. falciparum from asynchronous cultures according to the method of Desjardin et al. (Desjardins, R. E. et al: Quantitative assessment of antimalarial activity in vitro by a semiautomated microdilution technique. Antimicrob. Agents Chemother. 16, 710-718, (1979)).
(§3) The culture medium consisted of RPMI 1640 with the addition of 25 mM HEPES, 25 mM NaHCO3, […] neomycin and 10% human serum (A^+). Human-A^+ erythrocytes were used as the P. falciparum host cells. The parasites were maintained at 37° C. in an atmosphere of 3% O2, 4% CO2, 93% N2 and at 95% relative humidity.
(§4) In order to determine the activity, the preparations were dissolved in DMSO, pre-diluted in the culture medium to a suitable starting concentration and subsequently titrated-out into microtitre plates in the 2nd stage over 6-7 steps. After the addition of the parasite culture (0.7% parasitemia in 2.5% erythrocyte suspension), the test plates were incubated under the conditions given above for 48 h-72 h. The parasite growth in the different preparation concentrations was determined using [G-^3 H]-hypoxanthin incorporation compared to untreated control cultures on the same test plates. The 50% growth inhibition (IC50) was calculated according to logit regression analysis from the resulting dosage-activity curve.
(§5) The preparations were tested on at least one chloroquine-resistant and one chloroquine-sensitive P. falciparum strain. Additional sensitive and resistant strains were also included for further characterization.
(§6) Table 1 below contains the IC50 values measured in vitro for the growth inhibition of chloroquine-sensitive and chloroquine-resistant strains of the human pathogenic Plasmodium falciparum.

[2] = tested on: Plasmodium falciparum, chloroquine-sensitive strain HB3; assay: activity against P. falciparum in vitro, strain HB3; type: cell-based; conditions: chloroquine-sensitive strain HB3, 48 h-72 h, read-out: IC50 (50% growth inhibition)
Description: as §1, §2, §3, §4, §5, §6

[3] = tested on: Plasmodium falciparum, chloroquine-sensitive strain Ro7 3; assay: activity against P. falciparum in vitro, strain Ro7 3; type: cell-based; conditions: chloroquine-sensitive strain Ro7 3, 48 h-72 h, read-out: IC50 (50% growth inhibition)
Description: as §1, §2, §3, §4, §5, §6

[4] = tested on: Plasmodium falciparum, chloroquine-resistant strain RFCR3; assay: activity against P. falciparum in vitro, strain RFCR3; type: cell-based; conditions: chloroquine-resistant strain RFCR3, 48 h-72 h, read-out: IC50 (50% growth inhibition)
Description: as §1, §2, §3, §4, §5, §6

[5] = tested on: Plasmodium falciparum, chloroquine-sensitive strain FCH5C2; assay: activity against P. falciparum in vitro, strain FCH5C2; type: cell-based; conditions: chloroquine-sensitive strain FCH5C2, 48 h-72 h, read-out: IC50 (50% growth inhibition)
Description: as §1, §2, §3, §4, §5, §6

[6] = tested on: Plasmodium falciparum, chloroquine-sensitive strain RFMEF3; assay: activity against P. falciparum in vitro, strain RFMEF3; type: cell-based; conditions: chloroquine-sensitive strain RFMEF3, 48 h-72 h, read-out: IC50 (50% growth inhibition)
Description: as §1, §2, §3, §4, §5, §6

[7] = tested on: Plasmodium falciparum, chloroquine-sensitive strain NF54; assay: activity against P. falciparum in vitro, strain NF54; type: cell-based; conditions: chloroquine-sensitive strain NF54, 48 h-72 h; for IC50: Plasmodium falciparum, read-out: IC50 (50% growth inhibition)
Description: as §1, §2, §3, §4, §5, §6

[8] = tested on: Plasmodium falciparum, chloroquine-resistant strain 7G8; assay: activity against P. falciparum in vitro, strain 7G8; type: cell-based; conditions: chloroquine-resistant strain 7G8, 48 h-72 h, read-out: IC50 (50% growth inhibition)
Description: as §1, §2, §3, §4, §5, §6

[9] = tested on: Plasmodium falciparum, chloroquine-resistant strain ItG2 F6; assay: activity against P. falciparum in vitro, strain ItG2 F6; type: cell-based; conditions: chloroquine-resistant strain ItG2 F6, 48 h-72 h, read-out: IC50 (50% growth inhibition)
Description: as §1, §2, §3, §4, §5, §6

[10] = tested on: Plasmodium falciparum, chloroquine-resistant strain W2; assay: activity against P. falciparum in vitro, strain W2; type: cell-based; conditions: chloroquine-resistant strain W2, 48 h-72 h, read-out: IC50 (50% growth inhibition)
Description: as §1, §2, §3, §4, §5, §6

[11] = tested on: Plasmodium falciparum, chloroquine-resistant strain Indo; assay: activity against P. falciparum in vitro, strain Indo; type: cell-based; conditions: chloroquine-resistant strain Indo, 48 h-72 h, read-out: IC50 (50% growth inhibition)
Description: as §1, §2, §3, §4, §5, §6

[12] = tested on: Plasmodium berghei (strain ANKA); assay: activity against Plasmodium berghei in vivo (infected mice); conditions: mice; for ED50: single administration po, dose reducing average erythrocyte infection rate by 50%, read-out: ED50 (po); for inhibition in vivo at 10 mg/kg: 48 hours after treatment (D+3)
Description: Test method for the determination of the activity against Plasmodium berghei in vivo
The preparations according to the present invention were tested on mice infected with malaria pathogens (Plasmodium berghei). Male albino mice (IBM:MORO(SPF), FUELLINSDORF) weighing about 25 g were used as the test animals. They were kept in climatized rooms at 21°-22° C. in groups of 5 animals per cage. They received ad libitum a diet feed with a low PABA content ("NAFAG FUTTER" No. 9009 PAB-45, PABA content 45 mg/kg) and drinking water. On the first day of the test (D0) the test animals were infected with Plasmodium berghei (strain ANKA). For this there was used heparinized blood of a donor mouse with about 30% parasitemia, which was diluted with physiological saline such that it contains 10^8 parasitized erythrocytes per ml. 0.2 ml of this suspension was injected intravenously (i.v.) into the mice to be treated and into the control mice. In untreated control animals the parasitemia normally reaches 30-40% on the third day after the infection (D+3) and the test animals die between days +5 and +7.
The substances to be tested were dissolved or suspended in distilled water or in a mixture of 7% Tween 80, 3% alcohol (96%) and water. Usually, 0.25 ml of this solution or suspension was administered once subcutaneously and perorally to groups of 5 test animals. Treatment was effected 24 hours after the infection. 10 control animals were treated in the same manner with solvent or suspension medium per test.
All substances were tested in a first test in a single dosage of 10 mg/kg. Only those substances which in this test (10 mg/kg) had shown a parasitaemia reduction of 90% were used for the titration.
48 hours after the treatment (D+3), blood smears were prepared from all animals using blood from tail veins and were stained with Giemsa. The average erythrocyte infection rate (parasitemia in %) in the control groups as well as in the groups which had been treated with the test compounds was determined by counting under a microscope. The difference in the average values of the infection rates of control group (100%) and treated groups was calculated and expressed as a percentage reduction (GI %). The ED50 or ED90 was determined mathematically by means of the JMP programme (nonlinear fit). The ED50 (ED90) in mg/kg is that dose which after single administration reduces the average erythrocyte infection rate by 50% (90%) in comparison to the control group.
Table 2 below contains data with respect to the activity measured against Plasmodium berghei in mice: GI % is the percentage reduction in the parasitemia after a single dose of 10 mg/kg of the test substance administered perorally (po) or subcutaneously (sc); ED50 and ED90 are the effective doses of the test substance administered perorally or subcutaneously.

[13] = single dose 10 mg/kg po, read-out: GI % at 10 mg/kg (po): percentage reduction in the parasitemia
[14] = single dose 10 mg/kg sc, read-out: GI % at 10 mg/kg (sc): percentage reduction in the parasitemia

Molecule	IC50 [1] [µg/mL]	IC50 [7] [µg/mL]	ED50 [12] [mg/kg]	inhibition in vivo at 10 mg/kg [12, 13] [%]	inhibition in vivo at 10 mg/kg [12, 14] [%]	also measured
CCN(CC)CCNc1ccnc2cc(C(F)(F)F)ccc12 [Example 21, N1,N1 -Diethyl-N2-(7-trifluoromethyl-quinolin-4-yl)-ethane-1,2-diamine]	0.034 (≈ 0.109 µM)	0.021 (≈ 0.0674 µM)	–	–	–	IC50 [2]: 0.033 µg/mL (≈ 0.106 µM); IC50 [3]: 0.028 µg/mL (≈ 0.0899 µM); IC50 [4]: 0.054 µg/mL (≈ 0.173 µM); IC50 [5]: 0.035 µg/mL (≈ 0.112 µM); IC50 [6]: 0.035 µg/mL (≈ 0.112 µM); IC50 [8]: 0.049 µg/mL (≈ 0.157 µM); IC50 [9]: 0.028 µg/mL (≈ 0.0899 µM); IC50 [10]: 0.057 µg/mL (≈ 0.183 µM); IC50 [11]: 0.031 µg/mL (≈ 0.0996 µM)
C[C@@H](CN(C)C)Nc1ccnc2cc(Cl)ccc12 [Example 33c, (S)-N2-(7-Chloro-quinolin-4-yl)-N1,N1-dimethyl-propane-1,2-diamine]	0.024 (≈ 0.091 µM)	0.008 (≈ 0.0303 µM)	1.9	99.9	99.9	–
C[C@H](CN(C)C)Nc1ccnc2cc(Cl)ccc12 [Example 33d, (R)-N2-(7-Chloro-quinolin-4-yl)-N1,N1-dimethyl-propane-1,2-diamine]	0.023 (≈ 0.0872 µM)	0.008 (≈ 0.0303 µM)	2.2	99.9	99.9	–
CCN(CC)C[C@H](C)Nc1ccnc2cc(Cl)ccc12 [Example 33e, (S)-N2-(7-Chloro-quinolin-4-yl)-N1,N1-diethyl-propane-1,2-diamine]	0.053 (≈ 0.182 µM)	0.012 (≈ 0.0411 µM)	3.1	99.8	99.9	–
CCN(CC)C[C@@H](C)Nc1ccnc2cc(Cl)ccc12 [Example 33f, (R)-N2 (7-Chloro-quinolin-4-yl)-N1,N1-diethyl-propane-1,2-diamine]	0.041 (≈ 0.14 µM)	0.012 (≈ 0.0411 µM)	2.8	99.8	99.9	–
C[C@@H](CNc1ccnc2cc(Cl)ccc12)N(C)C [Example 33g, (S)-N1-(7-chloro-quinoline-4-yl)-N2,N2-dimethyl-propane-1,2-diamine]	0.017 (≈ 0.0644 µM)	0.005 (≈ 0.019 µM)	–	–	–	–
(R)-N1 -(7-Chloro-quinolin-4-yl)-N2,N2 -dimethyl-propane-1,2-diamine [Example 33h]	–	–	–	–	–	IC50 (50% growth inhibition) [1]: 0.018 µg/mL; IC50 (50% growth inhibition) [7]: 0.007 µg/mL
